In PMC2957295 (Biochemistry, 2010):

Biological target: T1, Fas (Homo sapiens, UniProt P25445)
T1 sequence (P25445 26-335): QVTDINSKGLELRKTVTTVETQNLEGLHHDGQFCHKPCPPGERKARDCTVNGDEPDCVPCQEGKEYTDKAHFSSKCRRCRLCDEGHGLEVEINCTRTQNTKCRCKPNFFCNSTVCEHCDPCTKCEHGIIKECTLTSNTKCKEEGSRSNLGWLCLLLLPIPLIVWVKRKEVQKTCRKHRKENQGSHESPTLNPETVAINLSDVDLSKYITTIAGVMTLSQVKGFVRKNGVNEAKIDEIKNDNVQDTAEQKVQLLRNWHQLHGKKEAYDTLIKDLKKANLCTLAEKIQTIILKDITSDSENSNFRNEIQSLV
Assay: anti-Fas immunoprecipitation of treated cells, Western blot for 4-HNE adduct
Type: cell-based
Details: covalent; HepG2 cells, 20 µM 4-HNE, 2 h

Structure (SMILES): CCCCCC(O)/C=C/C=O (stereo not shown) [4-hydroxy-2-nonenal]
- 4-HNE-Fas adduct: shows the presence of Daxx and 4-HNE-Fas adduct
